The test system of series [1] is Klebsiella pneumoniae. In words: Antibacterial activity against Klebsiella pneumoniae ATCC 10031 assessed as inhibition in bacterial growth incubated for 20 to 24 hrs by CLSI based broth microdilution method. In kind it is functional. The following applies: time 20-24 hrs. A general note: In broth dilution the organism is exposed to a series of concentrations in liquid medium.

The target of series [2] is T1, hERG (KCNH2) (Homo sapiens, UniProt Q12809). In words: Inhibition of hERG potassium channel expressed in CHO cells at 10 uM by electrophysiological patch clamp assay relative to control. In kind it is toxicity, cell-based. As to conditions: CHO cells expressing hERG. In general terms: hERG is a cardiac potassium channel; its block is linked to QT prolongation.
The subject of series [3] is Escherichia coli. The experiment in a line: Antibacterial activity against Escherichia coli K-12 BW25113 assessed as inhibition in bacterial growth incubated for 20 to 24 hrs by CLSI based broth microdilution method. In kind it is functional.
In series [4] the test system is Pseudomonas aeruginosa. In words: Antibacterial activity against Pseudomonas aeruginosa NCTC 13437 assessed as inhibition in bacterial growth incubated for 20 to 24 hrs by CLSI based broth microdilution method. In kind it is functional.
Series [5] concerns the target T1, hERG (KCNH2). The experiment in a line: Inhibition of hERG potassium channel expressed in CHO cells at 1 uM by electrophysiological patch clamp assay relative to control. In kind it is toxicity, cell-based. The following applies: CHO cells expressing hERG.
The subject of series [6] is Pseudomonas aeruginosa. In words: Antibacterial activity against Pseudomonas aeruginosa NCTC 11451 assessed as inhibition in bacterial growth incubated for 20 to 24 hrs by CLSI based broth microdilution method. In kind it is functional.
Series [7] concerns Acinetobacter baumannii. The experiment in a line: Antibacterial activity against Acinetobacter baumannii ATCC 19606 assessed as inhibition in bacterial growth incubated for 20 to 24 hrs by CLSI based broth microdilution method. In kind it is functional. As to conditions: time 20-24 hrs.
The test system of series [8] is Staphylococcus aureus. In words: Antibacterial activity against Staphylococcus aureus ATCC 29213 assessed as inhibition in bacterial growth incubated for 20 to 24 hrs by CLSI based broth microdilution method. In kind it is functional. The following applies: time 20-24 hrs.
Series [9] relates to Klebsiella pneumoniae. The experiment in a line: Antibacterial activity against Klebsiella pneumoniae ATCC BAA-1705 assessed as inhibition in bacterial growth incubated for 20 to 24 hrs by CLSI based broth microdilution method. In kind it is functional. As to conditions: time 20-24 hrs.
For series [10], the system named is Acinetobacter baumannii. The experiment in a line: Antibacterial activity against Acinetobacter baumannii ATCC BAA-747 assessed as inhibition in bacterial growth incubated for 20 to 24 hrs by CLSI based broth microdilution method. In kind it is functional.
Series [11] deals with Escherichia coli. In words: Antibacterial activity against Escherichia coli ATCC BAA-2340 assessed as inhibition in bacterial growth incubated for 20 to 24 hrs by CLSI based broth microdilution method. In kind it is functional.
For series [12], the system named is Pseudomonas aeruginosa. The experiment in a line: Antibacterial activity against Pseudomonas aeruginosa ATCC 27853 assessed as inhibition in bacterial growth incubated for 20 to 24 hrs by CLSI based broth microdilution method. As to conditions: time 20-24 hrs. In kind it is functional.
For series [13], the system named is Klebsiella pneumoniae. In words: Antibacterial activity against Klebsiella pneumoniae ATCC BAA-2146 assessed as inhibition in bacterial growth incubated for 20 to 24 hrs by CLSI based broth microdilution method. In kind it is functional.
Series [14] has as its system Escherichia coli. In words: Antibacterial activity against Escherichia coli K-12 BW25113 deltaTolC assessed as inhibition in bacterial growth incubated for 20 to 24 hrs by CLSI based broth microdilution method. In kind it is functional. As to conditions: time 20-24 hrs.
Series [15] deals with Escherichia coli. The experiment in a line: Antibacterial activity against Escherichia coli ATCC 35218 assessed as inhibition in bacterial growth incubated for 20 to 24 hrs by CLSI based broth microdilution method. In kind it is functional.
The test system of series [16] is Acinetobacter baumannii. The experiment in a line: Antibacterial activity against Acinetobacter baumannii ATCC 51432 assessed as inhibition in bacterial growth incubated for 20 to 24 hrs by CLSI based broth microdilution method. In kind it is functional.
Series [17] deals with Staphylococcus aureus. In words: Antibacterial activity against Staphylococcus aureus ATCC BAA-1556 assessed as inhibition in bacterial growth incubated for 20 to 24 hrs by CLSI based broth microdilution method. In kind it is functional.
The test system of series [18] is Escherichia coli. In words: Antibacterial activity against Escherichia coli ATCC 25922 assessed as inhibition in bacterial growth incubated for 20 to 24 hrs by CLSI based broth microdilution method. In kind it is functional. As to conditions: time 20-24 hrs.
The subject of series [19] is Klebsiella pneumoniae. The experiment in a line: Antibacterial activity against Klebsiella pneumoniae ATCC 700603 assessed as inhibition in bacterial growth incubated for 20 to 24 hrs by CLSI based broth microdilution method. In kind it is functional.
Series [20] has as its target T1, hERG (KCNH2). In words: (§1) Inhibition of hERG potassium channel expressed in CHO cells by electrophysiological patch clamp assay. In kind it is toxicity, cell-based. As to conditions: human, CHO cells expressing hERG.
Series [21] can be described thus: Inhibition of Escherichia coli topoisomerase 4 incubated for 120 mins by Transcreener ADP2 FI assay.
Series [22] addresses Voltage-gated inwardly rectifying potassium channel KCNH2 (Homo sapiens, UniProt Q12809). Described as §1. In kind it is toxicity, cell-based. As to conditions: for IC20: human, cho.
Series [23] deals with DNA gyrase (Escherichia coli, UniProt P0AES4+P0AES6). The experiment in a line: Inhibition of Escherichia coli DNA gyrase incubated for 80 mins by Transcreener ADP2 FI assay. In kind it is protein-complex assay.
The mark [24] stands for this setting: Escherichia coli, K-12 BW25113, time 20-24 hrs, read-out: MIC.
Setting [25] is: Pseudomonas aeruginosa, NCTC 13437, time 20-24 hrs, read-out: MIC.
Setting [26] is: Pseudomonas aeruginosa, NCTC 11451, time 20-24 hrs, read-out: MIC.
The mark [27] stands for this setting: Staphylococcus aureus, ATCC 29213, read-out: MIC.
Setting [28] is: Acinetobacter baumannii, ATCC BAA-747, time 20-24 hrs, read-out: MIC.
Setting [29] is: Escherichia coli, ATCC BAA-2340, time 20-24 hrs, read-out: MIC.
[30] abbreviates: Klebsiella pneumoniae, ATCC BAA-2146, time 20-24 hrs, read-out: MIC.
Setting [31] is: Escherichia coli, ATCC 35218, time 20-24 hrs, read-out: MIC.
Setting [32] is: Acinetobacter baumannii, ATCC 51432, time 20-24 hrs, read-out: MIC.
[33] abbreviates: Staphylococcus aureus, ATCC BAA-1556, time 20-24 hrs, read-out: MIC.
[34] abbreviates: Klebsiella pneumoniae, ATCC 700603, time 20-24 hrs, read-out: MIC.

Consider five compounds from ChEMBL document CHEMBL5390317, “Novel Indane-Containing NBTIs with Potent Anti-Gram-Negative Activity and Minimal hERG Inhibition” (ACS Med Chem Lett, 2023).

≈ marks a conversion by molar mass, not a printed value.

Chain of Voltage-gated inwardly rectifying potassium channel KCNH2 (Q12809 whole entry): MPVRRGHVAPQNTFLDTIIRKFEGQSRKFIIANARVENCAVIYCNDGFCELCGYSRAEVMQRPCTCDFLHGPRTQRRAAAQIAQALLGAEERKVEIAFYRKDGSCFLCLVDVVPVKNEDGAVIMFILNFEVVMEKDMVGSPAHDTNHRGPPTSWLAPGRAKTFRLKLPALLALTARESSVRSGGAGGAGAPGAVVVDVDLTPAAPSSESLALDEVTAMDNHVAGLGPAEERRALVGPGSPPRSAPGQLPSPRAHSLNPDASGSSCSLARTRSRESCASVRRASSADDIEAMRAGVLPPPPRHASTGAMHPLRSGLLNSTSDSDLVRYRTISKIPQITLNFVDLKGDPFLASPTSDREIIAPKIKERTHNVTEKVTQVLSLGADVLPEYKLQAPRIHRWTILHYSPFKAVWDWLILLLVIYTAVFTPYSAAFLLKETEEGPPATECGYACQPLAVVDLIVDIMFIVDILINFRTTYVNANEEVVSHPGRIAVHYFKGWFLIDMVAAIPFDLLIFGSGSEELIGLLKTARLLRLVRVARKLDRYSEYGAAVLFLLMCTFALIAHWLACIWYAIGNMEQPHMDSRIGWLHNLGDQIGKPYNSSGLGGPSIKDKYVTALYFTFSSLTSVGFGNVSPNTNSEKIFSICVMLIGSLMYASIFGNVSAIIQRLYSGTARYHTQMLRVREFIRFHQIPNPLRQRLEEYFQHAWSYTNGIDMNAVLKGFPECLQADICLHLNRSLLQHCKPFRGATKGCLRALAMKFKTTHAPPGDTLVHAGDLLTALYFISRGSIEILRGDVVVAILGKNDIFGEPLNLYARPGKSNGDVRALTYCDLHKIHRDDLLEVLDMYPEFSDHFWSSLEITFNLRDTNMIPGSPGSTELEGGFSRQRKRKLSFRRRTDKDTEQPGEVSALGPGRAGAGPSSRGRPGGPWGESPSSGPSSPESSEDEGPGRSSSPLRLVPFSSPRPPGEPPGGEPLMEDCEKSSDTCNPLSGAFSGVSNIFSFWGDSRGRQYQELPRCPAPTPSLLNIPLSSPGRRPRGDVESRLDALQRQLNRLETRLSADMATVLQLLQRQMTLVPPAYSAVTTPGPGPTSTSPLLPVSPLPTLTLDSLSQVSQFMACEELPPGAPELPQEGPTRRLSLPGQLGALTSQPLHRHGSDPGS
T1 sequence (Q12809 whole entry): as above

For the compound `N#Cc1cccc2c1CC(CNCCC1CN(c3ccc4c(n3)NC(=O)CO4)C(=O)O1)C2` (configuration not stated), the minimum inhibitory concentration (MIC) (commonly the least concentration at which growth counts as inhibited) in series [1] is ≤ 0.06 µg/mL; in series [3] (setting [24]), ≤ 0.06 µg/mL; in series [4] (setting [25]) it was 0.5 µg/mL (≈ 1.15 µM); in series [6] (setting [26]), 1 µg/mL (≈ 2.31 µM); in series [7], 0.125 µg/mL (≈ 0.288 µM); in series [8] (setting [27]), ≤ 0.06 µg/mL. The minimal inhibitory concentration (MIC) in series [9] is 1 µg/mL (≈ 2.31 µM); in series [10] (setting [28]), ≤ 0.06 µg/mL; in series [11] (setting [29]), ≤ 0.06 µg/mL; in series [12], 0.5 µg/mL (≈ 1.15 µM); in [13] (setting [30]) it was 4 µg/mL (≈ 9.23 µM); in [14], ≤ 0.06 µg/mL. The MIC in series [15] (setting [31]) is 0.125 µg/mL (≈ 0.288 µM); in series [16] (setting [32]), ≤ 0.06 µg/mL; in [17] (setting [33]), ≤ 0.06 µg/mL; in series [18], ≤ 0.06 µg/mL; in [19] (setting [34]) it was 1 µg/mL (≈ 2.31 µM). In [2], the inhibition (usually the share of the control response that was lost under treatment) at 10 µM worked out at 99%. Also, in [5], testing at 1 µM gave an inhibition of 55%. In series [20], the 20% effect concentration (IC20) (usually the concentration at which the effect reaches the 20% level) came to 0.45 µM. For the same compound, the IC50 (usually the concentration that gives 50% inhibition) in [21] was found to be 0.004 µM.
On to `C[C@H](C(=O)Nc1cc(F)c2c(c1)CC(CNCCC1CN(c3cnc4c(n3)NC(=O)CO4)C(=O)O1)C2)N(C)C` (stereo in doubt; 2h), for which the MIC in series [4] (time 20-24 hrs) turned out to be 4 µg/mL (≈ 7.39 µM); in series [6] (time 20-24 hrs), 4 µg/mL (≈ 7.39 µM); in series [10] (time 20-24 hrs) it was 0.125 µg/mL (≈ 0.231 µM); in [16] (time 20-24 hrs), 8 µg/mL (≈ 14.8 µM); in series [17] (time 20-24 hrs), 1 µg/mL (≈ 1.85 µM); in [19] (time 20-24 hrs), 2 µg/mL (≈ 3.69 µM). The compound also yielded an IC50 in series [22] of 126 µM. The compound also returned a concentration for an effect of 20% (IC20) in series [22] of 55 µM.
Turning to `C[C@@H](C(=O)Nc1cc(F)c2c(c1)CC(CNCCC1CN(c3cnc4c(n3)NC(=O)CO4)C(=O)O1)C2)N(C)C` (stereo in doubt; 2j), the minimal inhibitory concentration (MIC) in series [3] (time 20-24 hrs) is 0.125 µg/mL (≈ 0.231 µM); in [4] (time 20-24 hrs) it was 2 µg/mL (≈ 3.69 µM); in series [8] it was 0.25 µg/mL (≈ 0.462 µM); in series [10] (time 20-24 hrs) it was 0.5 µg/mL (≈ 0.923 µM); in series [11] (time 20-24 hrs) it was 0.25 µg/mL (≈ 0.462 µM); in series [15] (time 20-24 hrs), 0.25 µg/mL (≈ 0.462 µM). In series [22], 178 µM corresponded to half-maximal inhibition (IC50). Besides, in series [22], the IC20 came to 66 µM.
Regarding `O=C(O)COc1cc(F)c2c(c1)CC(CNCCC1CN(c3ccc4c(n3)NC(=O)CO4)C(=O)O1)C2` (configuration not stated), the minimal inhibitory concentration (MIC) in series [1] is 16 µg/mL (≈ 32 µM); in series [3] (setting [24]) it was > 64 µg/mL; in [4] (setting [25]), > 64 µg/mL; in series [6] (setting [26]), > 64 µg/mL; in series [7] it was > 64 µg/mL; in series [8] (setting [27]), > 64 µg/mL. Besides, the MIC in series [9] was > 64 µg/mL; in series [10] (setting [28]) it was > 64 µg/mL; in [11] (setting [29]) it was > 64 µg/mL; in [12] it was > 64 µg/mL; in series [13] (setting [30]), > 64 µg/mL; in series [14], 8 µg/mL (≈ 16 µM). For the same compound, the MIC in series [15] (setting [31]), in series [16] (setting [32]), in [17] (setting [33]), in series [18] and in [19] (setting [34]) was > 64 µg/mL throughout. Also, the half-inhibitory concentration (IC50) amounted to 0.6 µM in series [23] and 0.37 µM in series [21].
For the compound `C[C@H](C(=O)Nc1cc(F)c2c(c1)CC(CNCCC1CN(c3cnc4c(n3)NC(=O)CO4)C(=O)O1)C2)N(C)C` (stereo in doubt; 2g), the MIC in series [6] (time 20-24 hrs) came out at 2 µg/mL (≈ 3.69 µM); in series [11] (time 20-24 hrs), 0.125 µg/mL (≈ 0.231 µM); in series [13] (time 20-24 hrs), 8 µg/mL (≈ 14.8 µM); in [15] (time 20-24 hrs), 0.125 µg/mL (≈ 0.231 µM); in series [16] (time 20-24 hrs), 4 µg/mL (≈ 7.39 µM); in series [17] (time 20-24 hrs), 0.5 µg/mL (≈ 0.923 µM). In addition, the MIC in series [19] (time 20-24 hrs) was found to be 1 µg/mL (≈ 1.85 µM). The IC50 in [23] came to 0.026 µM; in series [22], 251 µM; in series [21], 0.013 µM. In [22], this compound yielded a 20% effect concentration (IC20) of 81 µM.
